Laboratory results taken from paper PMC5263248, “Blood Group Antigen Recognition via the Group A Streptococcal M Protein Mediates Host Colonization” (mBio, 2017).

Target: T1, M1 protein (Streptococcus pyogenes, UniProt Q99XV0)
T1 construct: gene emm1; captured on NTA chip
Test: SPR, single-cycle, steady-state affinity
Format: binding
Settings: protein captured on NTA chip via His tag, PBS, 25 °C

T1 sequence (Q99XV0 entry or part of it): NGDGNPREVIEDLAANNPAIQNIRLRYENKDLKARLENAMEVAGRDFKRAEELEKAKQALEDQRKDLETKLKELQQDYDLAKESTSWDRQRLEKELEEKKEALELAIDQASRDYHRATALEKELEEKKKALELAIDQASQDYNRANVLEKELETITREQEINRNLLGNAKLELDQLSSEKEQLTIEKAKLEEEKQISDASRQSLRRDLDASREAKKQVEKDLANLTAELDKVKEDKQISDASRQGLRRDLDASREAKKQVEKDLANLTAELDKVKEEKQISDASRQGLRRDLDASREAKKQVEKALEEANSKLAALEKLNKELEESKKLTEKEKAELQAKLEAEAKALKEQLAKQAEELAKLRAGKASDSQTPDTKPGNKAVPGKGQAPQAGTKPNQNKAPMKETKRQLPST

SMILES	Kd [µM]
CC(=O)N[C@H]1[C@@H](O[C@H]2[C@@H](O)[C@@H](CO)OC(O)[C@@H]2O[C@@H]2O[C@@H](C)[C@@H](O)[C@@H](O)[C@@H]2O)O[C@H](CO)[C@H](O)[C@@H]1O (some centres unmarked) [7K, GalNAcα1-3(Fucα1-2)Gal]	2.5 ± 0.4
C[C@@H]1O[C@@H](O[C@H]2C(O)O[C@H](CO)[C@H](O)[C@@H]2O[C@H]2O[C@H](CO)[C@H](O)[C@H](O)[C@H]2O)[C@@H](O)[C@H](O)[C@@H]1O (some centres unmarked) [blood group B trisaccharide, Galα1-3(Fucα1-2)Gal]	0.518 ± 0.0513
